Assay results taken from patent publication US20260174829A1, “METHODS OF REDUCING TYPE 2 CYTOKINE-MEDIATED INFLAMMATION USING NEUROMEDIN PEPTIDES” (Rutgers, The State University of New Jersey, priority 2018, published 2026).

How the values were obtained:
[1] = tested on: Nippostrongylus brasiliensis (Nb)-infected mice; assay: Nmb treatment (i.t.) of Nippostrongylus brasiliensis-infected mice; type: in vivo, mouse
Procedure: FIGS. 6A-6E. […] (A), Nb-infected mice were treated with PBS or Nmb (i.t.) and ILC2s in the BAL were quantified. (B) Expression of IL-5 and IL-13 in the lungs of PBS or Nmb-treated mice was determined on day 7 post-Nb by Real-time PCR. (C) Eosinophils in the BAL were quantified and (D) worm burdens were determined on day 7 post-Nb infection. ILC2s were sort-purified from the lungs of control or baso-dep mice on day 7 post-Nb and cultured (O/N) with IL-2 and IL-7 in the presence or absence of Nmb and (E) IL-5 and IL-13 levels in culture supernatants were determined by ELISA. P values were determined by two-tailed Student's t-tests.
Methods for maintenance, recovery, infection and isolation of N. brasiliensis larvae were performed as previously described (Camberis et al., 2003, Animal model of Nippostrongylus brasiliensis and Heligmosomoides polygyrus. Current protocols in immunology/edited by John E. Coligan . . . [et al.] Chapter 19:Unit 19.12.). Mice were infected with ˜500 N. brasiliensis larvae by subcutaneous injection. For basophil depletion, WT and basophil-depleted mice were treated with 0.375 μg of diphtheria toxin i.p. every other day; mice were sacrificed 3-7 days post-N. brasiliensis infection. For neuromedin B treatment, mice were anesthetized and treated with 10 μg of neuromedin B (MP Biomedicals) dissolved in 50 μL of PBS administered via intratracheal instillation.
For BAL collection after necropsy, 5 mL of PBS were injected and aspirated from the trachea of each mouse, after collection the volume of BAL collected was recorded. Following BAL collection, lungs were collected at necropsy and single-cell suspensions for flow cytometric analysis were prepared as previously described (Jungblut et al., J Vis Exp 29:1266, 2009). Briefly, pulmonary tissue was minced and incubated in HBSS containing 2.5% of FBS, collagenase D (2 mg/mL, Roche) and DNAse I (80 U/mL, Roche) for 30 min at 37° C. Cell suspensions were filtered through a […] filter and analyzed by flow cytometry. Additionally sections of pulmonary tissue were collected for real-time PCR and histological analysis.
Cells were stained with monoclonal anti-mouse fluorescently conjugated antibodies: B220 (RA3-6B2), c-Kit (ACK2), CD3 (145-2C11), CD4 (GK1.5), CD5 (53-73), CD19 (1D3), NK1.1 (PK136), CD11b (MI/70), CD11c (N418), IgE (23G3), FcRI (MAR-1), CD49b (DX5), CD45 (30-F11), CD90 (5E10), CD127 (A7R34), F4/80 (BM8), γδTCR (eBioGL3), Siglec-F (E50-2440), LγδG (1A8), LγδC (AL-21), IL-5 (TRFK5), IL-13 (eBiol3A), Ter-119 (TER-119) from eBioscience or BD Biosciences. For intracellular staining, cells were incubated for 5 hours at 37° C. with Leukocyte Activation Cocktail, with BD GolgiPlug™ (BD Biosciences) following manufacturer's instructions. Basophils were analyzed as CD45^+CD3^−CD19^−FceR1^+CD49b^+. Eosinophils were analyzed as CD45^+CD11b^+Siglec-F^+CD11c^−. Neutrophils were analyzed as Live CD45^+CD11b^+LγδG^+. ILC2s were analyzed as CD45^+CD3^−CD19^−CD11b^−CD11c^−NK1.1^−B220^−CD5^−Ter-119^− γδ TCR^−CD90^+CD127^+IL-5^+IL-13^+. Samples were acquired on a BD Fortessa flow cytometer (BD Biosciences) and analyzed using Flowlo software (v10.0.5, Tree Star). Cell sorting was performed using a FACSAriaII (BD Bioscience).
RNA from sections of lung tissue was isolated by homogenization in TRIzol (Invitrogen) followed by phenol-chloroform extraction and isopropanol precipitation. cDNA was generated per standard protocol with Superscript reverse transcriptase (Invitrogen) and used as input for real-time PCR. Real-time data were analyzed using the ΔΔCT method using SYBR Green chemistry (Applied Biosystems) with β-actin serving as the endogenous housekeeping gene. All reactions were run on an ABI 7500 Fast Real-Time PCR System (Applied Biosystems). Samples were normalized to naïve controls.

ILC2s = assay: RNA sequencing of ILC2s cultured overnight with or without Nmb; type: cell-based, mouse; settings: gene expression, NMB treated vs untreated ILC2s
Procedure: To gain further insight into how NMB might alter lymphocyte activation, ILC2s were sort-purified from the lungs of Nb-infected mice and cultured overnight with survival cytokines (IL-2, IL-7), with or without Nmb. Then, gene expression was evaluated by RNA sequencing analysis. […] This allowed for identification of NMB signaling pathways.

[2] = Nmb i.t. vs PBS, day 7, Real-time PCR
[3] = Nmb i.t. vs PBS, day 7 post-infection

How did the “IL-5 expression in the lungs” value [1, 2] turn out when H2N-GNLWATGHFM-amide [Nmb] was run?
The value was “reduced”.

What about the “IL-13 expression in the lungs” value [1, 2] of the same substance?
The value was “reduced”.

What about the “ILC2 responses (ILC2s in the BAL)” value [1, 3] of the same substance?
Its value is “reduced”.

What about the “eosinophilia (eosinophils in the BAL)” value [1, 3] of the same substance?
Its value is “reduced”.

And the infection-induced neutrophilia [1, 3]?
The infection-induced neutrophilia was “no effect”.

And the “worm clearance (worm burdens)” value ([1]; Nmb i.t. vs control mice, day 7 post-infection)?
Its value is “failed to clear worms as efficiently as control mice”.

What about the “Fold change Gm10031” value (ILC2s) of the same substance?
The value was −6.203.

What about the “Fold change Gm14288” value (ILC2s) of the same substance?
The value was −25.43.

What about the “Fold change Hgs_2” value (ILC2s) of the same substance?
The value was −1.893.

And the “Fold change Ighg1” value (ILC2s)?
The value was 253.6.

What about the “Fold change Ighg2b” value (ILC2s) of the same substance?
Its value is 276.

What about the “Fold change Igkv1-135” value (ILC2s) of the same substance?
Its value is 47.49.

And the “Fold change Igkv8-28” value (ILC2s)?
The value was 43.8.

And the “Fold change Igkv17-127” value (ILC2s)?
Its value is 800.9.

And the “Fold change Il1b” value (ILC2s)?
Its value is 3.263.

What about the “Fold change Klra7” value (ILC2s) of the same substance?
Its value is −1.984.

What about the “Fold change Ly6c2” value (ILC2s) of the same substance?
Its value is −2.369.

And the “Fold change Mcpt2” value (ILC2s)?
The value was −11.86.

What about the “Fold change Nkg7” value (ILC2s) of the same substance?
The value was −1.895.

What about the “Fold change P2rx7” value (ILC2s) of the same substance?
Its value is −2.149.

And the “Fold change Serpinb2” value (ILC2s)?
The value was 5.696.

And the “Fold change Sprr2a2” value (ILC2s)?
The value was 37.85.

And the “Fold change Tsix” value (ILC2s)?
The value was 2.833.

What about the “Fold change Xist” value (ILC2s) of the same substance?
The value was 3.077.
